Patent publication US20110172193A1, “PRO-DRUGS OF (E)-7-(3-(2-AMINO-1-FLUOROETHYLIDENE)PIPERIDIN-1-YL)-1-CYCLOPROPYL-6-FLUORO-8-METHOXY-4-OXO-1,4-DIHYDROQUINOLINE-3-CARBOXYLIC ACID” (priority 2010, published 2011)
Values after ≈ are worked out from the molar mass of the structure shown. Read-outs that look alike come from different tables or passages of the source.

Legend:
[1] = Aqueous solubility, modified procedure (saturated solutions, RP-HPLC); assay type: physicochemical; conditions: thermodynamic from solid, 100 mM phosphate buffer
Experimental: In these cases, the samples were targeted at a pH of 4 and 7 and were measured exclusively using 100 mM phosphate buffers. For both pH's, measured samples were initially prepared at ˜3 mg/ml and ˜10 mg/ml concentrations and for samples that dissolved rapidly, additional compound was added to the solution until saturated solutions were obtained.

[2] = In vitro bioconversion of pro-drug to parent drug in mouse blood, plasma, liver and kidney extract; assay type: in vitro ADME; conditions: for Peak Area of pro-drug: 37° C. heating block
Experimental: Compound concentrations were normalized to parent drug content by multiplying by a ratio of the relative molecular weights. Time 0 (minute) samples were prepared by immediately diluting with an equal volume of acetonitrile, vortexing, and transferring the samples to ice. […] Representative compounds of the present invention and the parent compound were analyzed by reversed-phase HPLC using an Agilent 1100 system. […] The solvent flow rate was 1 mL/min, and the column temperature was 40° C. Compound and parent peak identification was by diode array detection, monitored at 300 nm Conversion of the compounds (prodrugs) to parent drug was estimated by peak areas (A300 nm, mAU) of the respective agents. Mouse whole blood and plasma were collected from Swiss Webster mice, and stored at 4° C. until use (within 48 hours). […] For these experiments, fresh whole mouse livers or kidneys were homogenized for approximately 30 seconds (Omni-Tip™ disposable homogenizer tip) in 1 mL sterile saline and immediately stored on ice. Crude extracts (non-centrifuged) were incubated with the test compound or parent (20 μg/mL) and processed as described above.

[3] = In vitro bioconversion of pro-drug to parent drug in human blood and plasma; assay type: in vitro ADME; conditions: for Peak Area of pro-drug: 37° C.; for Conversion to the parent compound (summary in words): human whole blood and plasma
Experimental: Compounds #1, #4, #6, #15, and #16, as well as the parent drug [(E)-7-(3-(2-amino-1-fluoroethylidene)piperidin-1-yl)-1-cyclopropyl-6-fluoro-8-methoxy-4-oxo-1,4-dihydroquinoline-3-carboxylic acid] (the compound of formula (M)) were dissolved to 1 mg/mL, and diluted to 20 ng/mL in fresh, chilled (4° C.) human or mouse whole blood or plasma, or kidney and liver extract (prepared from the respective fresh mouse organs as described below). Compound concentrations were normalized to parent drug content by multiplying by a ratio of the relative molecular weights. Time 0 (minute) samples were prepared by immediately diluting with an equal volume of acetonitrile, vortexing, and transferring the samples to ice. For additional time points, samples were placed in an incubator (Tables 4 and 5), or in a heating block (Tables 6-12) at 37° C. for the indicated time, then immediately vortexed with an equal volume of acetonitrile and placed on ice. Samples were centrifuged and further diluted with an equal volume of water to a final concentration of 25% acetonitrile prior to analysis by HPLC; diluted samples were retained in the cooled (4° C.) HPLC sample injection chamber pending injection.
Representative compounds of the present invention and the parent compound were analyzed by reversed-phase HPLC using an Agilent 1100 system. Samples were injected onto a Zorbax SB-C18 column (3.5 μM, 4.6×150 mm) with a guard cartridge, and developed on a gradient of 15% aqueous acetonitrile in 0.1% trifluoroacetic acid to 85% aqueous acetonitrile in 0.1% trifluoroacetic acid over 10 minutes. The solvent flow rate was 1 mL/min, and the column temperature was 40° C. Compound and parent peak identification was by diode array detection, monitored at 300 nm Conversion of the compounds (prodrugs) to parent drug was estimated by peak areas (A300 nm, mAU) of the respective agents.
For studies with Compounds #1, #4 and #6 (with results as listed in Tables 8, 9 and 10), fresh human whole blood and plasma samples were purchased from BioChemed Services, shipped in Styrofoam coolers maintained with frozen cold packs, and used within 48 hours of receipt. For studies with Compounds #15 and #16 (with results as listed in Tables 11 and 12), blood was drawn from volunteers and whole blood samples and isolated plasma prepared and immediately placed on ice. Whole blood and plasma samples were maintained at 4° C. and used within approximately 30 hours.

[4] = Rat pharmacokinetics; assay type: in vivo, Sprague-Dawley rats; conditions: iv
Experimental: Male Sprague-Dawley rats (n=4) were fasted overnight, then dosed intravenously (IV) with a 1 mg/mL solution of a compound of the present invention (prodrug) or parent (compound of formula (M)) in 20% hydroxypropyl-β-cyclodextrin at 2 mg/kg. Blood samples were collected up to 24 hours post dose into tubes containing an anticoagulant. Blood samples were centrifuged for cell removal, and 100 μL plasma was transferred to a clean vial, placed on dry ice, and stored in a −70° C. freezer prior to analysis.
Plasma samples were prepared as follows. Two volumes of acetonitrile containing formic acid and internal standard were added to one volume of plasma to precipitate proteins. Samples were centrifuged (3000 g for 5 min) and supernatant removed for analysis by LC-MS-MS. Calibration standards were prepared by adding appropriate volumes of stock solution directly into plasma and treated identically to collected plasma samples. LC-MS-MS analysis was performed utilizing multiple reaction monitoring for detection of characteristic ions for the test compounds (pro-drugs), parent (compound of formula (M)) and internal standard.
Plasma concentrations were measured as described above to determine a concentration vs time profile. The area under the plasma concentration vs time curve (AUC) was calculated using the linear trapezoidal method. Fitting of the data to obtain pharmacokinetic parameters was carried out using non-compartmental analysis, with results as listed in Table 14, below. The term “NA” means the data was not available.

[5] = test system: Staphylococcus aureus (OC8525), a methicillin-resistant strain (MRSA); assay: In vivo efficacy in a mouse systemic infection model
Experimental: Female Swiss Webster mice weighing between 20-25 g were infected intraperitoneally with approximately 5×10^5 colony forming units (CFU) Staphylococcus aureus (OC8525), a methicillin-resistant strain (MRSA), in 7% mucin. One hour later, the animals were given the test compound intravenously or orally in a dose volume of 0.2 mL. Each animal test group consisted of eight animals. The test compounds were prepared immediately before dosing in 5% dextrose in water (D5W) and diluted further in D5W for i.v. and p.o. administration. The mice were observed over a three day period and ED50 values were calculated from the resulting % survival curves (see Table 13, below). The measured ED50 values were normalized to the content of (E)-7-(3-(2-amino-1-fluoroethylidene)piperidin-1-yl)-1-cyclopropyl-6-fluoro-8-methoxy-4-oxo-1,4-dihydroquinoline-3-carboxylic acid. For some compounds, in vivo efficacy was determined by testing a group of eight mice at a single dose level only. In these cases, the data presented in Table 13, below are reported as percent survival at the designated dose.

[6] = Solubility of parent compound in citrate buffer (HPLC); assay type: physicochemical; conditions: aqueous buffer, thermodynamic from solid, 50 mM citrate buffer
Experimental: The solubility of the parent compound (the compound of formula (M), also known as ((E)-7-(3-(2-amino-1-fluoroethylidene)piperidin-1-yl)-1-cyclopropyl-6-fluoro-8-methoxy-4-oxo-1,4-dihydroquinoline-3-carboxylic acid), was determined in a separate experiment, in which solutions containing 50 mM citrate buffer at various pH were added to the solid compound at various target concentrations. The samples were mixed overnight and the pH measured with a Beckman φ360 pH/Temp/mV Meter. The samples were then filtered using nylon centrifuge filters. The supernatant was diluted and the concentration was measured with HPLC.

[7] = pH 4, aqueous buffer, read-out: Aqueous Solubility pH~4
[8] = pH 7, aqueous buffer, read-out: Aqueous Solubility pH~7
[9] = fresh human blood (volunteers), 0 min
[10] = fresh human blood (volunteers), 5 min
[11] = fresh human blood (volunteers), 7.5 min
[12] = fresh human blood (volunteers), 10 min
[13] = fresh human blood (volunteers), 15 min
[14] = fresh human blood (volunteers), […]
[15] = fresh human plasma (volunteers), 0 min
[16] = fresh human plasma (volunteers), 5 min
[17] = fresh human plasma (volunteers), 7.5 min
[18] = fresh human plasma (volunteers), 10 min
[19] = fresh human plasma (volunteers), 15 min
[20] = fresh human plasma (volunteers), […]
[21] = Staphylococcus aureus, 72 h, Swiss Webster mice infected i.p. with MRSA, oral dose 1 h later, 3 day survival, normalized to parent content, read-out: ED50 p.o.
[22] = Staphylococcus aureus, iv, 72 h, Swiss Webster mice infected i.p. with MRSA, i.v. dose 1 h later, 3 day survival, normalized to parent content, read-out: ED50 i.v.
[23] = Sprague-Dawley, in vivo, male rats, 2 mg/kg i.v., analyte: the administered compound itself

solubility at 18 h [1, 7] [µg/mL] | solubility at 18 h [1, 8] [µg/mL] | Peak Area of pro-drug ([2]; fresh mouse blood, 0 min) [mAU] | Peak Area of pro-drug ([2]; fresh mouse blood, 5 min) [mAU] | Peak Area of pro-drug ([2]; fresh mouse blood, 7.5 min) [mAU] | Peak Area of pro-drug ([2]; fresh mouse blood, 10 min) [mAU] | Peak Area of pro-drug ([2]; fresh mouse blood, 15 min) [mAU] | Peak Area of pro-drug ([2]; fresh mouse blood, […]) [mAU] | Peak Area of pro-drug ([2]; fresh mouse plasma, 0 min) [mAU] | Peak Area of pro-drug ([2]; fresh mouse plasma, 5 min) [mAU] | Peak Area of pro-drug ([2]; fresh mouse plasma, 7.5 min) [mAU] | Peak Area of pro-drug ([2]; fresh mouse plasma, 10 min) [mAU] | Peak Area of pro-drug ([2]; fresh mouse plasma, 15 min) [mAU] | Peak Area of pro-drug ([2]; fresh mouse plasma, […]) [mAU] | Peak Area of pro-drug [3, 9] [mAU] | Peak Area of pro-drug [3, 10] [mAU] | Peak Area of pro-drug [3, 11] [mAU] | Peak Area of pro-drug [3, 12] [mAU] | Peak Area of pro-drug [3, 13] [mAU] | Peak Area of pro-drug [3, 14] [mAU] | SMILES | also measured
> 4600 | > 11100 | 265 | 75 | 36 | 29 | 17 | 123 | 488 | 106 | 72 | 62 | 22 | 182 | 242 | 23 | 10 | 8 | 6 | 59 | COc1c(N2CCC/C(=C(\F)CNC(=O)[C@@H]3CCCN3C(=O)[C@@H](N)CCCCN)C2)c(F)cc2c(=O)c(C(=O)O)cn(C3CC3)c12.Cl.Cl [Compound 15, 1-Cyclopropyl-7-[3-(2-{[(2S)-1-((2S)-2,6-diamino-hexanoyl)-pyrrolidine-2-carbonyl]-amino}-1-fluoro-ethylidene)-piperidin-1-yl]-6-fluoro-8-methoxy-4-oxo-1,4-dihydro-quinoline-3-carboxylic acid dihydrochloride] | Conversion to the parent compound (summary in words) ([2]; mouse whole blood and plasma): converted to the parent; Peak Area of pro-drug [3, 15]: 330 mAU; Peak Area of pro-drug [3, 16]: 26 mAU; Peak Area of pro-drug [3, 17]: 14 mAU; Peak Area of pro-drug [3, 18]: 10 mAU; Peak Area of pro-drug [3, 19]: 11 mAU; Peak Area of pro-drug [3, 20]: 75 mAU; Conversion to the parent compound (summary in words) [3]: converted to the parent; Conversion to the parent drug in vivo (in words) ([4]; in vivo): rapidly converted to the parent drug; ED50 [5, 21]: > 13 mg/kg; ED50 [5, 22]: 1.6 mg/kg
> 3690 | > 3360 | 332 | 131 | 99 | 71 | 34 | 174 | 406 | 220 | 178 | 149 | 98 | 285 | 370 | 332 | 342 | 374 | 359 | 336 | COc1c(N2CCC/C(=C(\F)CNC(=O)CNC(=O)[C@@H](N)CCC(=O)O)C2)c(F)cc2c(=O)c(C(=O)O)cn(C3CC3)c12.Cl [Compound 16, 7-(3-{2-[2-((2S)-2-Amino-4-carboxy-butyrylamino)-acetylamino]-1-fluoro-ethylidene}-piperidin-1-yl)-1-cyclopropyl-6-fluoro-8-methoxy-4-oxo-1,4-dihydro-quinoline-3-carboxylic acid hydrochloride] | Conversion to the parent compound (summary in words) ([2]; mouse plasma): converted to an unknown metabolite, but not substantially to the parent drug; Conversion to the parent compound (summary in words) ([2]; mouse whole blood): converted to the parent in mouse whole blood via the intermediacy of a metabolite of unknown identity; Peak Area of pro-drug [3, 15]: 351 mAU; Peak Area of pro-drug [3, 16]: 355 mAU; Peak Area of pro-drug [3, 17]: 366 mAU; Peak Area of pro-drug [3, 18]: 372 mAU; Peak Area of pro-drug [3, 19]: 371 mAU; Peak Area of pro-drug [3, 20]: 350 mAU; Conversion to the parent compound (summary in words) [3]: not measured to convert to the parent drug; Conversion to the parent drug in vivo (in words) ([4]; in vivo): rapidly converted to the parent drug; ED50 [5, 21]: > 13.9 mg/kg; ED50 [5, 22]: 1.6 mg/kg
 |  |  |  |  |  |  |  |  |  |  |  |  |  |  |  |  |  |  |  | COc1c(N2CCC/C(=C(\F)CN)C2)c(F)cc2c(=O)c(C(=O)O)cn(C3CC3)c12 [Compound (M), (E)-7-(3-(2-amino-1-fluoroethylidene)piperidin-1-yl)-1-cyclopropyl-6-fluoro-8-methoxy-4-oxo-1,4-dihydroquinoline-3-carboxylic acid] | solubility ([6]; pH 4.11, mixed overnight): 140 µg/mL (≈ 334 µM); solubility ([6]; pH 6.75, mixed overnight): 40 µg/mL (≈ 95.4 µM); AUC [4, 23]: 718 ng·h/mL; Cmax [4, 23]: 805 ng/mL; clearance [4, 23]: 47.1 mL/min/kg; Vd ([4]; Sprague-Dawley, in vivo, male rats, 2 mg/kg i.v., analyte: the administered compound itself, read-out: Vss): 6.08 L/kg; half-life ([4]; Sprague-Dawley, plasma, male rats, 2 mg/kg i.v., analyte: the administered compound itself): 1.5 h; ED50 ([5]; administered i.v., mouse MRSA systemic infection): 0.71 mg/kg/day; ED50 ([5]; administered p.o., mouse MRSA systemic infection): 10.6 mg/kg/day
